Earlier results on two compounds are cited in publication PMC10146281, “Pharmacokinetic and Pharmacodynamic Characteristics of Pelubiprofen Tromethamine vs. Pelubiprofen in Healthy Subjects” (Pharmaceutics, 2023).

Each structure is given as a SMILES string. Read-outs that look alike come from different tables or passages of the source.

The conditions of this series: cited from earlier work.

Consider `CC(C)Cc1ccc(C(C)C(=O)O)cc1.N=C(N)NCCC[C@H](N)C(=O)O` (centres unmarked) [ibuprofen arginate], for which the Cmax result (in vivo) is “approximately 30 mg/L”.
For `CC(C)Cc1ccc(C(C)C(=O)O)cc1` (centres unmarked) [ibuprofen], the Cmax entry is on record as “approximately 24 mg/L”.
